Results from PMC7523345 (Investigational new drugs, 2018).
Entries after “also recorded” stand apart in the source; their conditions may differ.

Assay: Phase I dose escalation study: safety, tolerability, DLT and MTD
Type: in vivo

Cc1cccc2c1NC(=O)[C@@H](NC(=O)[C@H](CCC(F)(F)F)[C@H](CCC(F)(F)F)C(N)=O)N=C2c1cccc(F)c1 [BMS-986115]
Leucocytosis (drug related AE, Grade 3 and 4) (Arm A QD 2.0 mg (N = 7)): 0 n (%)
Mouth ulceration (drug related AE, all grades) (Arm A QD 2.0 mg (N = 7)): 1 (14) n (%)
Nausea (drug related AE, Grade 3 and 4) (Arm A QD 2.0 mg (N = 7)): 1 (14) n (%)
Nausea (drug related AE, all grades) (Arm A QD 2.0 mg (N = 7)): 5 (71) n (%)
Pruritus (drug related AE, Grade 3 and 4) (Arm A QD 2.0 mg (N = 7)): 1 (14) n (%)
Pruritus (drug related AE, all grades) (Arm A QD 2.0 mg (N = 7)): 3 (43) n (%)
Pulmonary embolism (drug related AE, Grade 3 and 4) (Arm A QD 2.0 mg (N = 7)): 0 n (%)
Rash (drug related AE, all grades) (Arm A QD 2.0 mg (N = 7)): 1 (14) n (%)
Rash maculopapular (drug related AE, all grades) (Arm A QD 2.0 mg (N = 7)): 2 (29) n (%)
Sinusitis (drug related AE, all grades) (Arm A QD 2.0 mg (N = 7)): 0 n (%)
Urticaria (drug related AE, Grade 3 and 4) (Arm A QD 2.0 mg (N = 7)): 1 (14) n (%)
Vision blurred (drug related AE, all grades) (Arm A QD 2.0 mg (N = 7)): 0 n (%)
Vomiting (drug related AE, Grade 3 and 4) (Arm A QD 2.0 mg (N = 7)): 1 (14) n (%)
Vomiting (drug related AE, all grades) (Arm A QD 2.0 mg (N = 7)): 5 (71) n (%)
Weight decreased (drug related AE, all grades) (Arm A QD 2.0 mg (N = 7)): 0 n (%)
No. of patients with DLTs (Arm A QD 2.0 mg, 5 DLT evaluable patients): 3
Abdominal distension (drug related AE, all grades) (Arm A QD Total (N = 24)): 1 (4) n (%)
Abdominal pain (drug related AE, Grade 3 and 4) (Arm A QD Total (N = 24)): 1 (4) n (%)
Abdominal pain (drug related AE, all grades) (Arm A QD Total (N = 24)): 2 (8) n (%)
Blood creatinine increased (drug related AE, all grades) (Arm A QD Total (N = 24)): 1 (4) n (%)
Colitis (drug related AE, Grade 3 and 4) (Arm A QD Total (N = 24)): 1 (4) n (%)
Cough (drug related AE, Grade 3 and 4) (Arm A QD Total (N = 24)): 1 (4) n (%)
Cough (drug related AE, all grades) (Arm A QD Total (N = 24)): 3 (13) n (%)
Decreased Appetite (drug related AE, Grade 3 and 4) (Arm A QD Total (N = 24)): 0 n (%)
Decreased Appetite (drug related AE, all grades) (Arm A QD Total (N = 24)): 8 (33) n (%)
Dehydration (drug related AE, Grade 3 and 4) (Arm A QD Total (N = 24)): 0 n (%)
Dehydration (drug related AE, all grades) (Arm A QD Total (N = 24)): 3 (13) n (%)
Dermatitis acneiform (drug related AE, all grades) (Arm A QD Total (N = 24)): 4 (17) n (%)
Diarrhoea (drug related AE, Grade 3 and 4) (Arm A QD Total (N = 24)): 4 (17) n (%)
Diarrhoea (drug related AE, all grades) (Arm A QD Total (N = 24)): 18 (75) n (%)
Dry mouth (drug related AE, all grades) (Arm A QD Total (N = 24)): 2 (8) n (%)
Dry skin (drug related AE, all grades) (Arm A QD Total (N = 24)): 3 (13) n (%)
Dysgeusia (drug related AE, all grades) (Arm A QD Total (N = 24)): 3 (13) n (%)
Dyspepsia (drug related AE, all grades) (Arm A QD Total (N = 24)): 2 (8) n (%)
Dysphonia (drug related AE, all grades) (Arm A QD Total (N = 24)): 4 (17) n (%)
Fatigue (drug related AE, Grade 3 and 4) (Arm A QD Total (N = 24)): 1 (4) n (%)
Fatigue (drug related AE, all grades) (Arm A QD Total (N = 24)): 10 (42) n (%)
Flatulence (drug related AE, all grades) (Arm A QD Total (N = 24)): 0 n (%)
Hypocalcaemia (drug related AE, Grade 3 and 4) (Arm A QD Total (N = 24)): 0 n (%)
Hypocalcaemia (drug related AE, all grades) (Arm A QD Total (N = 24)): 1 (4) n (%)
Hypokalaemia (drug related AE, Grade 3 and 4) (Arm A QD Total (N = 24)): 4 (17) n (%)
Hypokalaemia (drug related AE, all grades) (Arm A QD Total (N = 24)): 7 (29) n (%)
Hyponatraemia (drug related AE, Grade 3 and 4) (Arm A QD Total (N = 24)): 1 (4) n (%)
Hyponatraemia (drug related AE, all grades) (Arm A QD Total (N = 24)): 1 (4) n (%)
Hypophosphataemia (drug related AE, Grade 3 and 4) (Arm A QD Total (N = 24)): 8 (33) n (%)
Hypophosphataemia (drug related AE, all grades) (Arm A QD Total (N = 24)): 16 (67) n (%)
Ileus (drug related AE, Grade 3 and 4) (Arm A QD Total (N = 24)): 1 (4) n (%)
Increased upper airway secretion (drug related AE, all grades) (Arm A QD Total (N = 24)): 0 n (%)
Laryngeal pain (drug related AE, all grades) (Arm A QD Total (N = 24)): 2 (8) n (%)
Leucocytosis (drug related AE, Grade 3 and 4) (Arm A QD Total (N = 24)): 0 n (%)
Mouth ulceration (drug related AE, all grades) (Arm A QD Total (N = 24)): 2 (8) n (%)
Nausea (drug related AE, Grade 3 and 4) (Arm A QD Total (N = 24)): 3 (13) n (%)
Nausea (drug related AE, all grades) (Arm A QD Total (N = 24)): 15 (63) n (%)
Pruritus (drug related AE, Grade 3 and 4) (Arm A QD Total (N = 24)): 1 (4) n (%)
Pruritus (drug related AE, all grades) (Arm A QD Total (N = 24)): 6 (25) n (%)
Pulmonary embolism (drug related AE, Grade 3 and 4) (Arm A QD Total (N = 24)): 1 (4) n (%)
Rash (drug related AE, all grades) (Arm A QD Total (N = 24)): 8 (33) n (%)
Rash maculopapular (drug related AE, all grades) (Arm A QD Total (N = 24)): 2 (8) n (%)
Sinusitis (drug related AE, all grades) (Arm A QD Total (N = 24)): 2 (8) n (%)
Urticaria (drug related AE, Grade 3 and 4) (Arm A QD Total (N = 24)): 1 (4) n (%)
Vision blurred (drug related AE, all grades) (Arm A QD Total (N = 24)): 1 (4) n (%)
Vomiting (drug related AE, Grade 3 and 4) (Arm A QD Total (N = 24)): 1 (4) n (%)
Vomiting (drug related AE, all grades) (Arm A QD Total (N = 24)): 12 (50) n (%)
Weight decreased (drug related AE, all grades) (Arm A QD Total (N = 24)): 2 (8) n (%)
Patients with dose limiting toxicities (Arm A QD, all dose levels): Four
Treatment-related SAEs, description (Arm A QD, one line per subject): Gr 3 nausea with Gr 3 fatigue and Gr 4 hypophosphataemia; also recorded: Gr 3 ileus
Maximum Tolerated Dose (MTD) (Arm A, once daily (QD) oral dosing): 1.5 mg
Subjects with treatment-related SAEs (Arm B BIW): 2 subjects
Abdominal distension (drug related AE, all grades) (Arm B BIW 2 mg (N = 2)): 0 n (%)
Abdominal pain (drug related AE, Grade 3 and 4) (Arm B BIW 2 mg (N = 2)): 0 n (%)
